ChEMBL document CHEMBL4406842, “Synthesis and in vitro biological evaluation of novel derivatives of Flexicaulin A condensation with amino acid trifluoroacetate” (Eur J Med Chem, 2019)
pIC50: −log10 of the molar value. Activity calls are given as the source filed them. The calls are words filed in the database; no cut-off is given here.

Key:
Homo sapiens [1] = species: Homo sapiens; assay: Activation of SAPK/JNK signalling pathway in human TE1 cells assessed as increase in ASK1 phosphorylation at 1.5 and 3 umol/L incubated for 48 hrs by Western blot analysis; type: cell-based
TE-1 [2] = assay: Induction of ROS production in human TE1 cells at 0.75 umol/L incubated for 48 hrs by DCFH-DA staining based flow cytometry (reference value: 2.4 %); type: functional
TE-1 [3] = assay: Induction of apoptosis in human TE1 cells assessed as increase in NOXA protein level at 0.75 to 3 umol/L incubated for 48 hrs by Western blot analysis; type: functional, cell-based
TE-1 [4] = assay: Induction of apoptosis in human TE1 cells assessed as early apoptotic cells at 1.5 umol/L incubated for 48 hrs by annexin V-FITC and propidium iodide staining based flow cytometry (reference value: 0.9 %); type: functional
TE-1 [5] = assay: Induction of apoptosis in human TE1 cells assessed as early apoptotic cells at 0.75 umol/L incubated for 48 hrs by annexin V-FITC and propidium iodide staining based flow cytometry (reference value: 0.9 %); type: functional
MCF7 = assay: Antiproliferative activity against human MCF7 cells assessed as reduction in cell viability incubated for 72 hrs by SRB assay; type: functional, cell-based; settings: MCF7, 72 h
Homo sapiens [6] = species: Homo sapiens; assay: Activation of SAPK/JNK signalling pathway in human TE1 cells assessed as increase in JNK phosphorylation at 0.75 to 3 umol/L incubated for 48 hrs by Western blot analysis; type: cell-based
TE-1 [7] = assay: Induction of apoptosis in human TE1 cells assessed as increase in cleaved caspase-9 level at 0.75 to 3 umol/L incubated for 48 hrs by Western blot analysis; type: functional, cell-based
MGC-803 = assay: Antiproliferative activity against human MGC803 cells assessed as reduction in cell viability incubated for 72 hrs by SRB assay; type: functional, cell-based; settings: MGC-803, 72 h
Homo sapiens [8] = species: Homo sapiens; assay: Activation of SAPK/JNK signalling pathway in human TE1 cells assessed as increase in MKK4 phosphorylation at 0.75 to 3 umol/L incubated for 48 hrs by Western blot analysis; type: cell-based
TE-1 [9] = assay: Induction of apoptosis in human TE1 cells assessed as late apoptotic cells at 3 umol/L incubated for 48 hrs by annexin V-FITC and propidium iodide staining based flow cytometry (reference value: 2.8 %); type: functional
[10] = Solubility of compound in water; type: physicochemical; settings: buffer
TE-1 [11] = assay: Induction of apoptosis in human TE1 cells assessed as increase in cleaved PARP level at 0.75 to 3 umol/L incubated for 48 hrs by Western blot analysis; type: functional, cell-based
TE-1 [12] = assay: Induction of apoptosis in human TE1 cells assessed as increase in cleaved caspase-3 level at 0.75 to 3 umol/L incubated for 48 hrs by Western blot analysis; type: functional, cell-based
A549 = assay: Antiproliferative activity against human A549 cells assessed as reduction in cell viability incubated for 72 hrs by SRB assay; type: functional, cell-based; settings: A549, 72 h
TE-1 [13] = assay: Induction of apoptosis in human TE1 cells assessed as increase in Bad protein level at 0.75 to 3 umol/L incubated for 48 hrs by Western blot analysis; type: functional, cell-based
TE-1 [14] = assay: Induction of ROS production in human TE1 cells at 3 umol/L incubated for 48 hrs by DCFH-DA staining based flow cytometry (reference value: 2.4 %); type: functional
TE-1 [15] = assay: Antiproliferative activity against human TE1 cells assessed as reduction in cell viability incubated for 72 hrs by SRB assay; type: functional, cell-based
GES1 = assay: Cytotoxicity against human GES-1 cells assessed as reduction in cell viability by SRB assay; type: cell-based
TE-1 [16] = assay: Induction of apoptosis in human TE1 cells assessed as late apoptotic cells at 0.75 umol/L incubated for 48 hrs by annexin V-FITC and propidium iodide staining based flow cytometry (reference value: 2.8 %); type: functional
TE-1 [17] = assay: Induction of apoptosis in human TE1 cells assessed as increase in Bax expression at 0.75 to 3 umol/L incubated for 48 hrs by Western blot analysis; type: functional, cell-based
TE-1 [18] = assay: Induction of apoptosis in human TE1 cells assessed as increase in Bak protein level at 0.75 to 3 umol/L incubated for 48 hrs by Western blot analysis; type: functional, cell-based
TE-1 [19] = assay: Inhibition of colony formation in human TE1 cells at 1 umol/l incubated for 24 hrs supplemented with fresh medium and measured after 7 days by crystal violet staining based assay relative to control; type: functional
TE-1 [20] = assay: Induction of apoptosis in human TE1 cells assessed as increase in Bax-Bcl2 ratio at 0.75 to 3 umol/L incubated for 48 hrs by Western blot analysis; type: functional, cell-based
TE-1 [21] = assay: Inhibition of colony formation in human TE1 cells incubated for 24 hrs supplemented with fresh medium and measured after 7 days by crystal violet staining based assay; type: functional, cell-based
TE-1 [22] = assay: Induction of apoptosis in human TE1 cells assessed as early apoptotic cells at 3 umol/L incubated for 48 hrs by annexin V-FITC and propidium iodide staining based flow cytometry (reference value: 0.9 %); type: functional
TE-1 [23] = assay: Induction of ROS production in human TE1 cells at 1.5 umol/L incubated for 48 hrs by DCFH-DA staining based flow cytometry (reference value: 2.4 %); type: functional
TE-1 [24] = assay: Induction of apoptosis in human TE1 cells assessed as decrease in Bcl2 expression at 0.75 to 3 umol/L incubated for 48 hrs by Western blot analysis; type: functional, cell-based
TE-1 [25] = assay: Induction of apoptosis in human TE1 cells assessed as late apoptotic cells at 1.5 umol/L incubated for 48 hrs by annexin V-FITC and propidium iodide staining based flow cytometry (reference value: 2.8 %); type: functional

## C=C1C(=O)[C@]23[C@H](OC(=O)[C@H](Cc4ccccc4)NC)[C@H]1C[C@H](O)[C@H]2[C@]1(COC(C)=O)CCCC(C)(C)[C@H]1C[C@H]3OC.O=C(O)C(F)(F)F
Homo sapiens [1]
  Activity: Active
TE-1 [2]
  Activity: 10.4%
TE-1 [3]
  Activity: Active
TE-1 [4]
  Activity: 5%
TE-1 [5]
  Activity: 2.8%
MCF7
  pIC50: 6.05
Homo sapiens [6]
  Activity: Active
TE-1 [7]
  Activity: Active
MGC-803
  pIC50: 5.82
Homo sapiens [8]
  Activity: Active
TE-1 [9]
  Activity: 30.7%
[10]
  solubility: Soluble
TE-1 [11]
  Activity: Active
TE-1 [12]
  Activity: Active
A549
  pIC50: 5.92
TE-1 [13]
  Activity: Active
TE-1 [14]
  Activity: 73.1%
TE-1 [15]
  inhibition: Dose-dependent effect
TE-1 [15]; TE-1, 72 h
  pIC50: 6.12
GES1
  Activity: Tde and Dose-dependent effect
TE-1 [16]
  Activity: 5.1%
TE-1 [17]
  Activity: Active
TE-1 [18]
  Activity: Active
TE-1 [19]
  inhibition at 1 µM: 100%
TE-1 [20]
  Activity: Active
TE-1 [21]
  inhibition: Dose-dependent effect
TE-1 [22]
  Activity: 8.7%
TE-1 [23]
  Activity: 36.4%
TE-1 [24]
  Activity: Active
TE-1 [25]
  Activity: 12%
